# According to patent US20250320213A1, “Nitrogen-Containing Heterocyclic Compounds” (Pfizer Inc., priority 2024, published 2025):
# Target: T1, STAT6 (Homo sapiens, UniProt P42226)
# T1 construct: stably transfected HaCaT keratinocyte cell line, which expresses NanoLuc luciferase reporter gene under the transcriptional control of the STAT6 responsive promoter; endogenous in cells; host or cells: HaCaT keratinocyte reporter cell line (stably transfected with a NanoLuc reporter)
# T1 sequence (P42226 1-847): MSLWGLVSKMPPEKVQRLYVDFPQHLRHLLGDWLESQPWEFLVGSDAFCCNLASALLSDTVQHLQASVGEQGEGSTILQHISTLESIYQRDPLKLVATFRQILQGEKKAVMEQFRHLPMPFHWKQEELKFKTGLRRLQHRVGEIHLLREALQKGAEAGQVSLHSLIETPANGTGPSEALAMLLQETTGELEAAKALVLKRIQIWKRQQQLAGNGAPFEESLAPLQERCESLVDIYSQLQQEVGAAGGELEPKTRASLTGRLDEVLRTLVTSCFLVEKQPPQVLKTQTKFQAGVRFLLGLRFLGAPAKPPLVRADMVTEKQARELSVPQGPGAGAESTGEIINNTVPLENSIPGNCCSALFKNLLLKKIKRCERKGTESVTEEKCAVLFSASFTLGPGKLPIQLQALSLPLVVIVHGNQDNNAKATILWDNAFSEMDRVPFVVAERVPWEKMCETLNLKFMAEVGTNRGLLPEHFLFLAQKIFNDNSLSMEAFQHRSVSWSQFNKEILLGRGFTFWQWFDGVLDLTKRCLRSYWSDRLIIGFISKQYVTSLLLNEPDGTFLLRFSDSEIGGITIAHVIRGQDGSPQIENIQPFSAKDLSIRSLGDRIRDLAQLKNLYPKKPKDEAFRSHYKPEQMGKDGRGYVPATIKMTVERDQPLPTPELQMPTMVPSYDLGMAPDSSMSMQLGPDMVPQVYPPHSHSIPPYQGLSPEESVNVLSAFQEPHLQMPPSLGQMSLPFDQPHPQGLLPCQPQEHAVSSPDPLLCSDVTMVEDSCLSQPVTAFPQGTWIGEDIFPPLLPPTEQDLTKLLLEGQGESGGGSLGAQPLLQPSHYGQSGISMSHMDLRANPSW
# Experiment: STAT6 Reporter Luciferase Assay (IL-13 stimulated HaCaT keratinocyte NanoLuc reporter cells)
# Assay type: cell-based
# Settings: IL-13 stimulated HaCaT STAT6 NanoLuc reporter cells; read-out: Reporter EC50
# How it was run: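 Cells were plated overnight, washed, exposed to compound for two hours, stimulated with IL-13 (0.12 nM final) for four hours at 37 °C, and then lysed with Nano-Glo substrate for 15 min before luminescence reading.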
row,EC50,SMILES
1,2 nM,"Cc1cccc2c1CN(C(=O)c1ccc(N3CCc4c(c(C(=O)NCc5ccc(NC(=O)N(C)C)cc5)nn4C(C)C)C3)nc1)C2 [Example 441, N-(4-(3,3-dimethylureido)benzyl)-1-isopropyl-5-(5-(4-methylisoindoline-2-carbonyl)pyridin-2-yl)-4,5,6,7-tetrahydro-1H-pyrazolo[4,3-c]pyridine-3-carboxamide]"
2,2 nM,"CC(C)n1nc(C(=O)NCc2ccc(NC(=O)N(C)C)cc2)c2c1CCN(c1ccc(C(=O)N3Cc4ccccc4C3)cn1)C2 [Example 442, N-(4-(3,3-dimethylureido)benzyl)-5-(5-(isoindoline-2-carbonyl)pyridin-2-yl)-1-isopropyl-4,5,6,7-tetrahydro-1H-pyrazolo[4,3-c]pyridine-3-carboxamide]"
3,311 nM,"Cc1nnn2c1CN(C(=O)c1ccc(N3CCc4c(c(C(=O)NCc5ccc(NC(=O)N(C)C)cc5)nn4C(C)C)C3)nc1)CC2 [Example 455, N-(4-(3,3-dimethylureido)benzyl)-1-isopropyl-5-(5-(3-methyl-4,5,6,7-tetrahydro-[1,2,3]triazolo[1,5-a]pyrazine-5-carbonyl)pyridin-2-yl)-4,5,6,7-tetrahydro-1H-pyrazolo[4,3-c]pyridine-3-carboxamide]"
4,202 nM,"CCS(=O)(=O)N1CCN(C(=O)c2ccc(N3CCc4c(c(C(=O)NCc5ccc(NC(=O)N(C)C)cc5)nn4C(C)C)C3)nc2)CC1 [Example 563, N-(4-(3,3-dimethylureido)benzyl)-5-(5-(4-(ethylsulfonyl)piperazine-1-carbonyl)pyridin-2-yl)-1-isopropyl-4,5,6,7-tetrahydro-1H-pyrazolo[4,3-c]pyridine-3-carboxamide]"
5,223 nM,"CC(C)n1nc(C(=O)NCc2ccc(NC(=O)N(C)C)cc2)c2c1CCN(c1ccc(C(=O)N3CCC4(CCC(=O)N4C)CC3)cn1)C2 [Example 564, N-(4-(3,3-dimethylureido)benzyl)-1-isopropyl-5-(5-(1-methyl-2-oxo-1,8-diazaspiro[4.5]decane-8-carbonyl)pyridin-2-yl)-4,5,6,7-tetrahydro-1H-pyrazolo[4,3-c]pyridine-3-carboxamide]"
6,5 nM,"COCCN1CCC(CN(C)C(=O)c2ccc(N3Cc4c(C(=O)NCc5ccc(NC(=O)N(C)C)cc5)nn(C(C)C)c4[C@@H](C)C3)cc2)CC1 [Example 565, (S)-N-(4-(3,3-dimethylureido)benzyl)-1-isopropyl-5-(4-(((1-(2-methoxyethyl)piperidin-4-yl)methyl)(methyl)carbamoyl)phenyl)-7-methyl-4,5,6,7-tetrahydro-1H-pyrazolo[4,3-c]pyridine-3-carboxamide]"
7,3 nM,"Cc1nn(C)c(=O)n1-c1ccc(N2Cc3c(C(=O)NCc4ccc(NC(=O)N5CCN(C)CC5)cc4)nn(C(C)C)c3[C@@H](C)C2)nc1 [Example 613, (S)-5-(5-(1,3-dimethyl-5-oxo-1,5-dihydro-4H-1,2,4-triazol-4-yl)pyridin-2-yl)-1-isopropyl-7-methyl-N-(4-(4-methylpiperazine-1-carboxamido)benzyl)-4,5,6,7-tetrahydro-1H-pyrazolo[4,3-c]pyridine-3-carboxamide]"
8,1 nM,"CC(C)n1nc(C(=O)NCc2ccc(NC(=O)N3CCN4CCCC[C@H]4C3)c(F)c2)c2c1[C@@H](C)CN(c1ccc(C(=O)N(C)C)cc1)C2 [Example 640, (S)-N-(4-(((S)-5-(4-(dimethylcarbamoyl)phenyl)-1-isopropyl-7-methyl-4,5,6,7-tetrahydro-1H-pyrazolo[4,3-c]pyridine-3-carboxamido)methyl)-2-fluorophenyl)octahydro-2H-pyrido[1,2-a]lpyrazine-2-carboxamide]"
9,5 nM,"CC(C)n1nc(C(=O)NCc2ccc(NC(=O)N3CC4(CN(C)C4)C3)c(F)c2)c2c1[C@@H](C)CN(c1ccc(C(=O)N(C)C)cc1)C2 [Example 641, (S)-5-(4-(dimethylcarbamoyl)phenyl)-N-(3-fluoro-4-(6-methyl-2,6-diazaspiro[3.3]heptane-2-carboxamido)benzyl)-1-isopropyl-7-methyl-4,5,6,7-tetrahydro-1H-pyrazolo[4,3-c]pyridine-3-carboxamide]"
10,1 nM,"CC(C)n1nc(C(=O)NCc2ccc(NC(=O)N3CCC4(CCN(C)C4)CC3)c(F)c2)c2c1[C@@H](C)CN(c1ccc(C(=O)N(C)C)cc1)C2 [Example 642, (S)-N-(4-((5-(4-(dimethylcarbamoyl)phenyl)-1-isopropyl-7-methyl-4,5,6,7-tetrahydro-1H-pyrazolo[4,3-c]pyridine-3-carboxamido)methyl)-2-fluorophenyl)-2-methyl-2,8-diazaspiro[4.5]decane-8-carboxamide]"
11,1 nM,"CC(C)n1nc(C(=O)NCc2ccc(NC(=O)N3CCC4(CC3)CN(C)CCO4)c(F)c2)c2c1[C@@H](C)CN(c1ccc(C(=O)N(C)C)cc1)C2 [Example 643, (S)-N-(4-((5-(4-(dimethylcarbamoyl)phenyl)-1-isopropyl-7-methyl-4,5,6,7-tetrahydro-1H-pyrazolo[4,3-c]pyridine-3-carboxamido)methyl)-2-fluorophenyl)-4-methyl-1-oxa-4,9-diazaspiro[5.5]undecane-9-carboxamide]"
12,1 nM,"CC(C)n1nc(C(=O)NCc2ccc(NC(=O)N3CCC4(CCCN(C)C4)CC3)c(F)c2)c2c1[C@@H](C)CN(c1ccc(C(=O)N(C)C)cc1)C2 [Example 644, (S)-N-(4-((5-(4-(dimethylcarbamoyl)phenyl)-1-isopropyl-7-methyl-4,5,6,7-tetrahydro-1H-pyrazolo[4,3-c]pyridine-3-carboxamido)methyl)-2-fluorophenyl)-2-methyl-2,9-diazaspiro[5.5]undecane-9-carboxamide]"
13,1 nM,"CC(C)n1nc(C(=O)NCc2ccc(NC(=O)N3CCC4(CC3)CCN4C)c(F)c2)c2c1[C@@H](C)CN(c1ccc(C(=O)N(C)C)cc1)C2 [Example 645, (S)-5-(4-(dimethylcarbamoyl)phenyl)-N-(3-fluoro-4-(1-methyl-1,7-diazaspiro[3.5]nonane-7-carboxamido)benzyl)-1-isopropyl-7-methyl-4,5,6,7-tetrahydro-1H-pyrazolo[4,3-c]pyridine-3-carboxamide]"
14,1 nM,"CC(C)n1nc(C(=O)NCc2ccc(NC(=O)N3CC4(CCCN(C)C4)C3)c(F)c2)c2c1[C@@H](C)CN(c1ccc(C(=O)N(C)C)cc1)C2 [Example 646, (S)-5-(4-(dimethylcarbamoyl)phenyl)-N-(3-fluoro-4-(6-methyl-2,6-diazaspiro[3.5]nonane-2-carboxamido)benzyl)-1-isopropyl-7-methyl-4,5,6,7-tetrahydro-1H-pyrazolo[4,3-c]pyridine-3-carboxamide]"
15,1 nM,"CC(C)n1nc(C(=O)NCc2ccc(NC(=O)N3CCC4(CC3)CN(C)C4)c(F)c2)c2c1[C@@H](C)CN(c1ccc(C(=O)N(C)C)cc1)C2 [Example 647, (S)-5-(4-(dimethylcarbamoyl)phenyl)-N-(3-fluoro-4-(2-methyl-2,7-diazaspiro[3.5]nonane-7-carboxamido)benzyl)-1-isopropyl-7-methyl-4,5,6,7-tetrahydro-1H-pyrazolo[4,3-c]pyridine-3-carboxamide]"
16,1 nM,"CC(C)n1nc(C(=O)NCc2ccc(NC(=O)N3CCN(C)C4(CC4)C3)c(F)c2)c2c1[C@@H](C)CN(c1ccc(C(=O)N(C)C)cc1)C2 [Example 648, (S)-5-(4-(dimethylcarbamoyl)phenyl)-N-(3-fluoro-4-(4-methyl-4,7-diazaspiro[2.5]octane-7-carboxamido)benzyl)-1-isopropyl-7-methyl-4,5,6,7-tetrahydro-1H-pyrazolo[4,3-c]pyridine-3-carboxamide]"
17,1 nM,"CC(C)n1nc(C(=O)NCc2ccc(NC(=O)N3CCN(C)CC3)cc2)c2c1[C@@H](C)CN(c1ccc3c(c1)CCCN(C)C3=O)C2 [Example 651, (S)-1-isopropyl-7-methyl-5-(2-methyl-1-oxo-2,3,4,5-tetrahydro-1H-benzo[c]azepin-7-yl)-N-(4-(4-methylpiperazine-1-carboxamido)benzyl)-4,5,6,7-tetrahydro-1H-pyrazolo[4,3-c]pyridine-3-carboxamide]"
18,5 nM,"Cc1nn(C)c(=O)n1-c1ccc(N2Cc3c(C(=O)NCc4ccc(NC(=O)N5CCN(C)CC5)cc4)nn(C(C)C)c3[C@@H](C)C2)cc1 [Example 652, (S)-5-(4-(1,3-dimethyl-5-oxo-1,5-dihydro-4H-1,2,4-triazol-4-yl)phenyl)-1-isopropyl-7-methyl-N-(4-(4-methylpiperazine-1-carboxamido)benzyl)-4,5,6,7-tetrahydro-1H-pyrazolo[4,3-c]pyridine-3-carboxamide]"
